{"source": "patent EP1733758A1", "about": "“Methods for administration of a farnesyl dibenzodiazepinone” (Ecopia Biosciences Inc., priority 2005, dated 2006)", "key": {"[1]": {"test_system": "P388 murine leukemia cells", "assay": "Murine P388 leukemia survival model", "assay_type": "in vivo", "protocol": "Formulation: The compound of Formula I is first dissolved in 1 volume of 90% propylene glycol (PG). This is followed by the addition of 2 volumes of 45% polyethylene glycol 400 (PEG 400). The volume ratio of PEG 400/PG/water is respectively 30:30:40. Compound is injected in a volume of 10 mL/kg.\nDBA/2 female mice (6 weeks of age) were injected intraperitoneally (IP) with 1 x 10^6 P388 murine leukemia cells (day 0). Mice were randomized in 4 groups (10 mice per group) at Day 1 and treated with the following dose and schedule. Group 1: IV injection of vehicle (PEG/PG formulation) on D1 and D8, daily IP administration of vehicle from D2 to D7 and from D9 to D10 Group 2: IV injection of the compound of Formula I in PEG-PG formulation at 50 mg/kg on D1 followed by daily IP administration of the compound of Formula I in PEG-PG formulation at 10 mg/kg from D2 to D4 and from D6 to D12 Group 3: Daily IP administration of the compound of Formula I in PEG-PG formulation at 10 mg/kg from D1 to D4 and from D8 to D14\nMice body weights were recorded twice a week. Lethality and behaviour of animals were recorded every day. All vehicle control mice died between D8 to D10 from peritoneal carcinomatosis associated with ascites. Three (3) mice from group 2 died one day after treatment due to formulation toxicity. The remaining seven (7) died between days 8 and 12. Mice from group 3 died between days 8 and 12. The results are expressed as percent of mean survival time of treated animals over the mean survival time of the control group (treated vs control, T/C%) and as increase life span (mean survival time of treated animals minus that of control animals over the mean survival time of the control group; ILS%)."}, "tumor cell lines": {"test_system": "tumor cell lines", "assay": "In vitro activity against tumor cell lines (average)", "assay_type": "cell-based"}, "[2]": {"assay": "Pharmacokinetics of 14-day continuous intravenous infusion in rats", "assay_type": "in vivo, Sprague-Dawley rats", "conditions": "for steady-state plasma concentration / Css / T½z: 14-day CIV; for Css: average of plasma concentration between 30h and 14 days; for T½z: calculated at the end of treatment", "protocol": "Sprague-Dawley rats received an intravenous continuous infusion over 14 days of Formula I at 25 mg/kg/day, 50 mg/kg/day, or 75 mg/kg/day at a rate of 2 mL/kg/h for 14 consecutive days (same formulation as in Example 7). Blood was collected from the jugular vein in tubes containing K2 EDTA from 3 rats/sex/group at the following time points: 2, 6, and 12 hours after the start of dosing on Day 1, on Day 2 at 6 hours (approximately 30 hours after the start of dosing), on Days 6 and 10 at 6 hours, and on Day 15, 1 hour prior the end of dosing, and then at 5 min, 15 min, 30 min, 1 h, and 2 h after the end of dosing."}, "[3]": {"assay": "Allometric extrapolation of population pharmacokinetic parameters to humans", "conditions": "for half-life: human; for half-life / clearance / Vd: plasma, intravenous; for Vd: read-out: Vss", "protocol": "(§1) An analysis was performed to derive allometric equations for Formula I pharmacokinetic parameters using Formula I plasma concentration-time data from three species, including mouse, rat, and monkey, and to estimate human pharmacokinetic parameters from those allometric equations.\n(§2) Plasma concentrations of Formula I were obtained from mice, rats, and monkeys following intravenous injection or continuous infusion. Formula I pharmacokinetic parameters in mice, rats, and monkeys were estimated using population pharmacokinetic analysis, a function of the software program NONMEM™ (version 5). Typical population pharmacokinetic parameters for Formula I in humans were extrapolated from allometric equations that were derived from pharmacokinetic parameters estimated in the three animal species.\nAllometric equations for the pharmacokinetic parameters clearance (CL), volume of distribution (V1 and V2), and inter-compartmental clearance (Q) were derived. The population PK parameters of the compound of Formula I for humans were extrapolated from the allometric equations, and the estimated values are shown in Table 6. Simulated Formula I plasma concentration-time profiles in humans are shown in Figure 13 and estimated end of infusion concentrations are provided in Table 7."}, "[4]": {"assay": "Maximum tolerated dose and tolerability of bolus administration in mice", "assay_type": "in vivo", "conditions": "for MTD: mouse, in vivo"}, "U-87MG cell line": {"test_system": "U-87MG cell line", "assay": "In vitro activity in the U-87MG cell line", "assay_type": "cell-based", "conditions": "Homo sapiens"}, "[5]": {"assay": "Acute toxicity of 24-hour CIV administration in monkeys", "assay_type": "in vivo", "conditions": "infusion rate 2 mL/kg/hour"}, "[6]": {"assay": "Population pharmacokinetic analysis (NONMEM), mouse", "assay_type": "in vivo", "conditions": "Mouse (IV)", "protocol": "as §1, §2\nA two-compartment model with a first-order elimination from the central compartment adequately described Formula I plasma concentration-time profiles following intravenous bolus injection (30 mg/kg) in mice and rats, 7-day continuous infusion in rats (50 to 170 mg/kg/day), and 14-day continuous infusion in monkeys (5 to 30 mg/kg/day)."}, "[7]": {"assay": "Pharmacokinetics and tissue distribution after bolus IV, IP, SC and PO administration in mice", "assay_type": "in vivo, female Crl: CD1 mice", "conditions": "daily bolus administrations of 30 mg/kg (SC) or 20 mg/kg (IP)"}, "[8]": {"conditions": "Grp 2: IV 50 mg/kg (D1), IP 10 mg/kg (D2-4 & D6-12)"}, "[9]": {"conditions": "Grp 3: IP 10 mg/kg (D1-4 & D8-14)"}, "[10]": {"conditions": "Human, WT 70 Kg, estimated from allometric equations"}, "[11]": {"conditions": "Human, estimated from allometric equations derived from mouse, rat and monkey"}, "[12]": {"conditions": "typical population PK parameter"}}, "note": "Read-outs that look alike come from different tables or passages of the source.", "data": [{"smiles": "CC(C)=CCC/C(C)=C/CC/C(C)=C/CN1C(=O)c2cccc(O)c2Nc2c(O)cc(O)cc21", "note": "[Formula I, 10-farnesyl-4,6,8-trihydroxy-dibenzodiazepin-11-one]", "values": [{"measurement": "% ILS", "setting": "[1]; [8]", "value": 33, "unit": "%"}, {"measurement": "%T/C", "setting": "[1]; [8]", "value": 133.3, "unit": "%"}, {"measurement": "Mean Survival Days ± SD", "setting": "[1]; [8]", "value": "11 ± 1.5", "unit": "days"}, {"measurement": "Median survival", "setting": "[1]; [8]", "value": 12}, {"measurement": "% ILS", "setting": "[1]; [9]", "value": 38.9, "unit": "%"}, {"measurement": "%T/C", "setting": "[1]; [9]", "value": 138.9, "unit": "%"}, {"measurement": "Mean Survival Days ± SD", "setting": "[1]; [9]", "value": "12.6 ± 4.9", "unit": "days"}, {"measurement": "Median survival", "setting": "[1]; [9]", "value": 12.5}, {"measurement": "mice died one day after treatment due to formulation toxicity", "setting": "[1]; group 2 (10 mice), IV 50 mg/kg in PEG-PG formulation on D1", "value": 3, "unit": "mice"}, {"measurement": "IC50", "setting": "tumor cell lines", "value": "≥ 1", "unit": "µM"}, {"measurement": "steady-state plasma concentrations", "setting": "[2]; 14-day CIV at doses of 50 and 75 mg/kg/day, above therapeutic threshold", "value": "> 2", "unit": "µM"}, {"measurement": "steady-state plasma concentration", "setting": "[2]; 25 mg/kg/day", "value": "~0.8", "unit": "µM"}, {"measurement": "Css", "setting": "[2]; 25 mg/kg/day", "value": 347, "unit": "ng/mL"}, {"measurement": "T½z", "setting": "[2]; 25 mg/kg/day", "value": 1.6, "unit": "h"}, {"measurement": "steady-state plasma concentration", "setting": "[2]; 50 mg/kg/day", "value": "~2.5", "unit": "µM"}, {"measurement": "Css", "setting": "[2]; 50 mg/kg/day", "value": "1,150 ng/mL"}, {"measurement": "T½z", "setting": "[2]; 50 mg/kg/day", "value": 1.2, "unit": "h"}, {"measurement": "steady-state plasma concentration", "setting": "[2]; 75 mg/kg/day", "value": "~3.9", "unit": "µM"}, {"measurement": "Css", "setting": "[2]; 75 mg/kg/day", "value": "1,796 ng/mL"}, {"measurement": "T½z", "setting": "[2]; 75 mg/kg/day", "value": 1.2, "unit": "h"}, {"measurement": "plasma concentration", "setting": "[2]; CIV 50 mg/kg/day, Day 10 (unusually high)", "value": "1,753 ng/mL"}, {"measurement": "Q", "setting": "[3]; [10]", "value": 2.27, "unit": "L/h"}, {"measurement": "V1", "setting": "[3]; [10]", "value": 13.9, "unit": "L"}, {"measurement": "V2", "setting": "[3]; [10]", "value": 39.2, "unit": "L"}, {"measurement": "Ke", "setting": "[3]; [11]", "value": 1.192, "unit": "h⁻¹"}, {"measurement": "Q", "setting": "[3]; [11]", "value": 0.533, "unit": "mL/min/kg"}, {"measurement": "V1", "setting": "[3]; [11]", "value": 0.198, "unit": "L/kg"}, {"measurement": "V2", "setting": "[3]; [11]", "value": 0.559, "unit": "L/kg"}, {"measurement": "half-life", "setting": "[3]; estimated from allometric equations derived from mouse, rat and monkey, read-out: t1/2,α (converted)", "value": 0.509, "unit": "h"}, {"measurement": "half-life", "setting": "[3]; estimated from allometric equations derived from mouse, rat and monkey, read-out: t1/2,β (converted)", "value": 13.8, "unit": "h"}, {"measurement": "clearance", "setting": "[3]; [10]", "value": 275, "unit": "mL/min"}, {"measurement": "Vd", "setting": "[3]; [10]", "value": 53.1, "unit": "L"}, {"measurement": "clearance", "setting": "[3]; [11]", "value": 3.93, "unit": "mL/min/kg"}, {"measurement": "Vd", "setting": "[3]; [11]", "value": 0.757, "unit": "L/kg"}, {"measurement": "tolerability finding", "setting": "[4]; IP bolus dosing", "value": "some intestinal occlusion"}, {"measurement": "tolerability finding", "setting": "[4]; SC bolus dosing", "value": "swelling and thickening of the skin"}, {"measurement": "MTD", "setting": "[4]; IP bolus", "value": 20, "unit": "mg/kg"}, {"measurement": "MTD", "setting": "[4]; IV bolus", "value": 200, "unit": "mg/kg"}, {"measurement": "MTD", "setting": "[4]; SC bolus", "value": 30, "unit": "mg/kg"}, {"measurement": "IC50", "setting": "U-87MG cell line", "value": 10.9, "unit": "µM"}, {"measurement": "acute toxicity / tolerability", "setting": "[5]; 35 mg/kg", "value": "well tolerated"}, {"measurement": "acute toxicity / tolerability", "setting": "[5]; 70 mg/kg", "value": "well tolerated"}, {"measurement": "Q", "setting": "[6]; WT 0.022 Kg", "value": 0.001, "unit": "L/h"}, {"measurement": "V1", "setting": "[6]; WT 0.022 Kg", "value": 0.004, "unit": "L"}, {"measurement": "V2", "setting": "[6]; WT 0.022 Kg", "value": 0.005, "unit": "L"}, {"measurement": "Ke", "setting": "[6]; [12]", "value": 8.466, "unit": "h⁻¹"}, {"measurement": "Q", "setting": "[6]; [12]", "value": 1.09, "unit": "mL/min/kg"}, {"measurement": "V1", "setting": "[6]; [12]", "value": 0.176, "unit": "L/kg"}, {"measurement": "V2", "setting": "[6]; [12]", "value": 0.225, "unit": "L/kg"}, {"measurement": "sustained plasma concentrations", "setting": "[7]", "value": "1 to 2", "unit": "µM"}]}]}
